# From patent publication US9557319B2, “Cell-based arrays, methods of making, and methods of using” (University of Florida Research Foundation, Inc., priority 2010, dated 2017)
# Marks after values point to notes of the source that are not given here.
# What was measured:
# Type in all cases: cell-based, human
# HCT116 cells [1] = test: HCT116 proliferation (BrdU) on drug-eluting cellular microarray; conditions: for drug sensitivity (1/D50) / Emax: non-proliferation, 24 h
# Description: (§1) Glass coverslips were cleaned in an oxygen plasma etcher (Terra Universal, Fullerton, Calif.). Arrays of isolated spots of (3-Aminopropyl) trimethoxysilane (NH2-terminated silane) (Sigma-Aldrich, St. Louis, Mo.) were robotically printed on clean coverslips using a Calligrapher Miniarrayer printer (Bio-Rad, Hercules, Calif.) with 1500 μm center to center distances and a pin diameter of 400 μm. The silane printed coverslips were then coated with 175 Å of titanium (Ti; 99.995% pure) and 225 Å of gold (Au; 99.999% pure) (Williams Advanced Materials, Buffalo, N.Y.). Following coating, gold-coated arrays were sonicated to remove gold from the amine spots, exposing NH2-terminated silane islands. The coverslips were incubated with 0.1 M, methyl-terminated alkanethiol (CH3(CH2)11SH) (Sigma) for 30 min. Substrates were incubated in 10% Pluronic® F-127 (BASF Corporation, USA) for 3 h and 1% heat-denatured BSA for 30 min to create a non-fouling surface around the adhesive amine islands. Three layers of the drug-loaded ethylene vinyl acetate (EVA) polymers were printed over the amine islands and placed in a desiccator between each successive layer. Poly-d-lysine (0.1%) was over-spotted onto the EVA films to promote cell attachment. […] Schematic diagrams of the arrays are illustrated in FIGS. 6A and 6B.
# (§2) HCT116 (p53+/+, ATCC, Manassas, Va.) human colon cancer cells were maintained in McCoy's 5a Medium supplemented with 10% fetal bovine serum (Thermo Scientific, Waltham, Mass.), 1% penicillin G and 1% streptomycin (Thermo Scientific). The cells were cultured at 37° C. in a humidified incubator containing 5% CO2. Following microarray fabrication, 100,000 HCT116 cells were seeded over each array in 3 ml serum-free media and allowed to incubate on a rocking plate at room temperature until cell attachment to the EVA islands occurred, with minimal attachment to background, typically 10-15 min. Microarrays were gently washed in PBS, placed in a 35 mm petri dish with complete media, and placed in an incubator for 24-72 h.
# (§3) Camptothecin-loaded microarrays were stained with Annexin V (BD Pharminigen), fixed in 4% paraformaldehyde, and placed in PBS with Hoechst dye 34580 (Invitrogen, USA) for 30 min. Azide-loaded microarrays were fixed with 4% paraformaldehyde and incubated with PBS containing Hoechst 34580 dye. Finally, nutlin-3a-loaded microarrays were fixed with 4% paraformaldehyde, stained with BrdU (BD Bioscience, San Jose, Calif.), and incubated in PBS containing Hoechst 34580 dye. All arrays were mounted with Fluoro-Gel (Electron Microscope Sciences, Hatfield, Pa.) and imaged using an Axiovert 200M microscope (Carl Zeiss, Oberkochen, Germany). Analysis was performed with Axiovision (Carl Zeiss, Oberkochen, Germany) by quantifying, in each drug-eluting island, the area of fluorescence and reported as relative fluorescence intensity (RFI).
# (§4) Proliferation values were normalized to control (0 μM drug). Values for concentration-response curves were transformed to non-proliferation by subtracting the normalized value from 100%. Curve fitting analysis was performed to obtain Emax and D50 values using the equation E=E0+(Emax×D)/(D+D50) where E is the effect (either non-proliferation or apoptosis), E0 is the initial value, Emax is the maximum effect, D is the dose, and D50 is the dose at which a 50% maximum effect (Emax) is observed^34. Drug sensitivity values were obtained by taking the inverse of the D50 and multiplying by 100. Those values marked with “#” indicate that the r^2 value of the curve-fit was below 0.65. N/A values are present where negative parameters were obtained.
# (§5) Hyperbolic curve fits were generated for the dose responses from a first drug in the presence of a fixed amount of a second drug for each combination (Tables 2 and 3, below). […]
# HCT116 cells [2] = test: HCT116 apoptosis (annexin V) on drug-eluting cellular microarray; conditions: for drug sensitivity (1/D50) / Emax: apoptosis; for Emax: Homo sapiens, HCT-116, Camptothecin dose response
# Description: as §1, §2, §3, §4, §5
# HCT116 cells [3] = test: HCT116 cell number (Hoechst nuclear stain) on drug-loaded microarray; conditions: after 72 h
# Description: The following figures (FIGS. 5.1 to 5.4) are micrographs taken from drug-eluting cellular microarrays, manufactured as described herein. The images are taken from individual cellular islands from the same array under various drug-loading conditions over a period of three days. HCT116 cells are nuclear stained with Hoechst for easy visibility. […] The water phase for this experiment was loaded with azide at various concentrations in addition to a control with no drug loaded. Azide is a useful probe reagent, mutagen, and preservative. Azide inhibits cytochrome oxidase by binding irreversibly to the heme cofactor in a process similar to the action of carbon monoxide. As such, it is expected to induce necrosis in cells at physiologically relevant doses.
# To establish microarray fidelity, microarrays were manufactured as described above. HCT116 cells were then seeded over microarrays and incubated for 24 or 72 h. Microarrays were fixed in 4% paraformaldehyde and stained with Hoechst 34580 dye.
# as §3
# [4] = Camptothecin dose response, 2nd drug NUT 0 μM
# [5] = Camptothecin dose response, 2nd drug NUT 1 μM
# [6] = Camptothecin dose response, 2nd drug NUT 25 μM
# [7] = Nutlin dose response, 2nd drug CPT 1 μM
# [8] = Nutlin dose response, 2nd drug CPT 10 μM
# [9] = Nutlin dose response, 2nd drug CPT 50 μM
smiles,measurement,setting,value
CC[C@@]1(O)C(=O)OCc2c1cc1n(c2=O)Cc2cc3ccccc3nc2-1 [Camptothecin],increase in sensitivity to camptothecin in presence of nutlin-3a,"HCT116 cells [1]; 125 μM nutlin compared to 0 μM nutlin, HCT116 proliferation",over 16 fold
same,drug sensitivity (1/D50),HCT116 cells [1]; [4],4.83 +/− 0.54*
same,drug sensitivity (1/D50),"HCT116 cells [1]; Camptothecin dose response, 2nd drug NUT 0 μM, listed as camptothecin",4.83
same,drug sensitivity (1/D50),HCT116 cells [1]; [5],5.65 +/− 5.2
same,drug sensitivity (1/D50),HCT116 cells [1]; [6],12.1 +/− 18
same,drug sensitivity (1/D50),"HCT116 cells [1]; Camptothecin dose response, 2nd drug NUT 125 μM",78.1 +/− 26*
same,drug sensitivity (1/D50),"HCT116 cells [1]; Camptothecin dose response, 2nd drug NUT 125 μM, listed as camptothecin",78.1
same,Emax,"HCT116 cells [1]; Homo sapiens, HCT-116, 24 h, Camptothecin dose response, 2nd drug NUT 0 μM, read-out: Emax",86.4%
same,Emax,"HCT116 cells [1]; Homo sapiens, HCT-116, 24 h, Camptothecin dose response, 2nd drug NUT 1 μM, read-out: Emax",88.8%
same,Emax,"HCT116 cells [1]; Homo sapiens, HCT-116, 24 h, Camptothecin dose response, 2nd drug NUT 25 μM, read-out: Emax",86.3%
same,Emax,"HCT116 cells [1]; Homo sapiens, HCT-116, 24 h, Camptothecin dose response, 2nd drug NUT 125 μM, read-out: Emax",79.1%
same,decrease in the Emax of the camptothecin concentration response curve,"HCT116 cells [2]; 125 μM nutlin-3a compared to 0 μM nutlin-3a, HCT116 apoptosis",65%
same,proportion of HCT116 cells undergoing apoptosis on single-drug microarray,HCT116 cells [2]; 72 h incubation,greater with increasing concentrations
same,drug sensitivity (1/D50),HCT116 cells [2]; [4],2.53 +/− 1.1
same,drug sensitivity (1/D50),HCT116 cells [2]; [5],83.3 +/− 76
same,drug sensitivity (1/D50),HCT116 cells [2]; [6],15.9 +/− 2.8
same,Emax,HCT116 cells [2]; 2nd drug NUT 0 μM,21.6%
same,Emax,HCT116 cells [2]; 2nd drug NUT 1 μM,12.8%
same,Emax,HCT116 cells [2]; 2nd drug NUT 25 μM,9.31%
same,Emax,HCT116 cells [2]; 2nd drug NUT 125 μM,7.46%
COc1ccc(C2=N[C@@H](c3ccc(Cl)cc3)[C@@H](c3ccc(Cl)cc3)N2C(=O)N2CCNC(=O)C2)c(OC(C)C)c1 [Nutlin-3a],increase in sensitivity to nutlin-3a on addition of camptothecin,"HCT116 cells [1]; 50 μM CPT compared to 0 μM CPT, HCT116 proliferation",over 5 fold
same,cell cycle arrest (ratio of non-proliferating cells) on single-drug microarray,"HCT116 cells [1]; HCT116, 24 h",dose-dependent cell cycle arrest
same,Emax,"HCT116 cells [1]; Nutlin dose response, 2nd drug CPT 0 μM",108 +/− 110
same,drug sensitivity (1/D50),"HCT116 cells [1]; Nutlin dose response, 2nd drug CPT 0 μM, listed as Nutlin",3.00 +/− 0.49*
same,drug sensitivity (1/D50),"HCT116 cells [1]; Nutlin dose response, 2nd drug CPT 0 μM, listed as nutlin-3a",3.0
same,Emax,HCT116 cells [1]; [7],96.1 +/− 25
same,drug sensitivity (1/D50),HCT116 cells [1]; [7],1.78 +/− 1.7
same,Emax,HCT116 cells [1]; [8],86.5 +/− 19
same,drug sensitivity (1/D50),HCT116 cells [1]; [8],2.97 +/− 3.7
same,Emax,HCT116 cells [1]; [9],81.4 +/− 1.9
same,drug sensitivity (1/D50),"HCT116 cells [1]; Nutlin dose response, 2nd drug CPT 50 μM, listed as Nutlin",19.6 +/− 12
same,drug sensitivity (1/D50),"HCT116 cells [1]; Nutlin dose response, 2nd drug CPT 50 μM, listed as nutlin-3a",19.6
same,drug sensitivity (1/D50),HCT116 cells [2]; [8],2.48 +/− 0.83
same,drug sensitivity (1/D50),HCT116 cells [2]; [9],143 +/− 98
same,effect on proportion of HCT116 cells that underwent apoptosis,"HCT116 cells [2]; administered alone, microarray",no effect
same,proportion of HCT116 cells that underwent apoptosis,"HCT116 cells [2]; nutlin-3a alone, 125 μM loading",5.6%
same,HCT116 cell numbers vs drug loading concentration,HCT116 cells [3],decreased with increasing loading concentrations
